{"source": "patent US20250057164A1", "about": "“USE OF ISOXAZOLINECARBOXAMIDE FOR SPROUT INHIBITION” (BAYER AKTIENGESELLSCHAFT, priority 2021, published 2025)", "test_system": "stored potato tubers (Solanum tuberosum, variety: Columbia)", "experiment": "Visual assessment of sprout development on stored potato tubers after spray application on a roller table", "type": "in vivo", "procedure": "Application was done on a roller table and were applied with a spray application covering the outside of the tubers homogeneously with the spray solution containing with the respective dose of compound of formula (I) and depending on the treatment with the additional MSO (methylated seed oil) as indicated in the following tables. The spray solutions were prepared to match an equivalent of 10 L water per ton potato."}
{"smiles": "C=C[C@]1(C(=O)N[C@H]2CO[C@@H](C(=O)OC)C2)CC(c2cc(F)cc(F)c2)=NO1", "note": "(relative stereo) [compound of formula (I), methyl(2R*,4R*)-4-[[(5S)-3-(3,5-difluorophenyl)-5-vinyl-4H-isoxazole-5-carbonyl]amino]tetrahydrofuran-2-carboxylate]", "values": [{"measurement": "Relative inhibition of potato sprouting", "setting": "0.2 g/to, MSO 0.5 L/to, SC 200, 0 DAA", "result": 0, "unit": "%"}, {"measurement": "Relative inhibition of potato sprouting", "setting": "0.2 g/to, MSO 0.5 L/to, SC 200, 71 DAA", "result": 67, "unit": "%"}, {"measurement": "Relative inhibition of potato sprouting", "setting": "2 g/to, MSO 0.5 L/to, SC 200, 0 DAA", "result": 0, "unit": "%"}, {"measurement": "Relative inhibition of potato sprouting", "setting": "2 g/to, MSO 0.5 L/to, SC 200, 71 DAA", "result": 73, "unit": "%"}, {"measurement": "Relative inhibition of potato sprouting", "setting": "2 g/to, no MSO, SC 200, 0 DAA", "result": 0, "unit": "%"}, {"measurement": "Relative inhibition of potato sprouting", "setting": "2 g/to, no MSO, SC 200, 28 DAA", "result": 30, "unit": "%"}, {"measurement": "Relative inhibition of potato sprouting", "setting": "2 g/to, no MSO, SC 200, 71 DAA", "result": 18, "unit": "%"}, {"measurement": "Relative inhibition of potato sprouting", "setting": "20 g/to, MSO 0.5 L/to, SC 200, 0 DAA", "result": 0, "unit": "%"}, {"measurement": "Relative inhibition of potato sprouting", "setting": "20 g/to, MSO 0.5 L/to, SC 200, 71 DAA", "result": 93, "unit": "%"}, {"measurement": "Relative inhibition of potato sprouting", "setting": "20 g/to, no MSO, SC 200, 0 DAA", "result": 0, "unit": "%"}, {"measurement": "Relative inhibition of potato sprouting", "setting": "20 g/to, no MSO, SC 200, 28 DAA", "result": 45, "unit": "%"}, {"measurement": "Relative inhibition of potato sprouting", "setting": "20 g/to, no MSO, SC 200, 71 DAA", "result": 30, "unit": "%"}, {"measurement": "Relative inhibition of potato sprouting", "setting": "200 g/to, MSO 0.5 L/to, SC 200, 0 DAA", "result": 0, "unit": "%"}, {"measurement": "Relative inhibition of potato sprouting", "setting": "200 g/to, MSO 0.5 L/to, SC 200, 71 DAA", "result": 95, "unit": "%"}]}
